{"source": "paper PMC8877149", "about": "“A Fungal Defensin Inhibiting Bacterial Cell-Wall Biosynthesis with Non-Hemolysis and Serum Stability” (Journal of Fungi, 2022)", "key": {"[1]": {"system": "Bacillus megaterium cells", "assay": "Membrane permeability assay (propidium iodide fluorescence)", "type": "cell-based", "settings": "B. megaterium in PBS pH 7.3, 1 µM propidium iodide, peptide or vancomycin at 10 × CL, exc 525 nm / em 595 nm", "experimental": "The membrane permeability assay was performed according to the method previously described. Meucin-18 and Meucin-49, two known scorpion venom lytic peptides, were used as positive controls and vancomycin, a known bacterial cell-wall synthesis inhibitor without membrane-disruptive ability as a negative control. Bacillus megaterium cells in 500 μL of phosphate buffered saline (PBS) (pH 7.3) were mixed with 1 μM propidium iodide (PI) for 5 min in the dark. Fluorescence was measured with the F-4500 FL spectrophotometer (Hitachi High-Tech Science Corporation, Tokyo, Japan). Once the basal fluorescence reached a constant value, peptides or vancomycin at 10 × CL were added, and changes in fluorescence arbitrary were monitored (λexc = 525 nm; λems = 595 nm)."}, "[2]": {"system": "S. warneri cells", "assay": "Cytoplasmic accumulation of UDP-MurNAc-pentapeptide (UMP)", "type": "cell-based, Staphylococcus warneri", "settings": "130 µg/mL chloramphenicol pre-treatment 15 min, Py4 0.6 µM or vancomycin 2.0 µM, 30 min", "experimental": "The cytoplasmic UDP-MurNAc-pentapeptide (abbreviated as UMP) accumulation experiment was carried out according to the method previously described. In brief, S. warneri cells were grown at 37 °C to an OD600 of 0.5 in 40 mL broth medium and then the culture was supplemented with 130 μg/mL chloramphenicol to impede bacterial cell proliferation by blocking their protein synthesis. After 15 min of incubation, the culture was divided into three equal portions, and one portion was treated with Py4 (0.6 μM), the second with vancomycin (2.0 μM), and the third was used as an untreated control. UMP was extracted from the harvested cells following 30 min of incubation. UMP was identified by MALDI−TOF on MALDI−TOF/TOF Ultraflextreme^TM (Bruker Daltonics, Bremen, Germany) using 2,5-dihydroxybenzoic acid (DHB) as the matrix in the negative-reflection ion mode."}, "[3]": {"system": "S. aureus", "design": "key: “+”, activity; “-“, no activity”", "settings": "Figure 6, antibacterial activity; cited from earlier work", "description": "Compared with plectasin, the natural variant Py4 has two point mutations at positions 14 and 33 (Figure 1A) that are respectively located on the α-helix (Q14K) and the C-loop (G33A) (Figure 1A). These two mutations are interesting considering their mutational effects previously reported in plectasin. (1) Position 14. […] Small dots represent identical residues to plectasin. Positions showing differences in the peptides are boxed and the mutated residues relative to plectasin are colored in red. Positions involved in intramolecular epistasis are linked by one line. The arrow points to the position accounting for differential genetic backgrounds between plectasin and Py4. […] “+”, activity; “-“, no activity”. TEXT PRINTED IN THE PICTURE: Ple ..."}, "[4]": {"assay": "Serum stability assay (residual activity by inhibition-zone assay)", "type": "in vitro ADME", "settings": "undiluted fresh mouse serum, 37 °C, read-out inhibition zone on B. megaterium, 0.2 nmol/well, ns vs 0 h", "experimental": "(§1) Hemolytic activity of peptides against fresh erythrocytes from ICR mice (Mus musculus) was assayed according to the standard method. Peptides were diluted with 0.9% NaCl to the indicated concentration. The percentage of hemolysis is determined as (Apep − Ablank)/(Atot − Ablank) × 100, in which “A” represents absorbance measured at 570 nm. Ablank and Apep were evaluated in the absence or presence of peptides. One hundred percent hemolysis (Atot) was obtained in the presence of 1% Triton X-100. For the stability assay, Py4 was incubated in H2O or fresh mouse serum for the indicated times at 37 °C and their residual activity was measured by the inhibition-zone assay."}, "[5]": {"system": "fresh erythrocytes from ICR mice", "assay": "Hemolysis assay", "type": "cell-based, Mus musculus", "settings": "3.125 to 25 µM, 2-fold serial dilutions, in 0.9% NaCl; A570; 100% = 1% Triton X-100", "experimental": "as §1"}, "[6]": {"system": "Methicillin-resistant Staphylococcus aureus P1386", "assay": "Inhibition-zone assay, lethal concentration (CL)", "type": "cell-based", "settings": "methicillin-resistant S. aureus P1386", "experimental": "(§2) The inhibition-zone assay was used to quantify the antibacterial activity of Py4, as described previously. In brief, an overnight bacterial culture from a single colony was inoculated into fresh medium and grew to the late log-phase. A 10 μL aliquot of each culture was diluted in 6 mL pre-heated medium containing 0.8% agar. The mixture was spread on a 9-cm Petri dish, giving a depth of 1 mm. After settling, 3-mm wells were punched in the plate and then 2 μL peptide samples of different concentrations were added to each well. The agar plates were incubated overnight at indicated temperatures. A lethal concentration (CL) was calculated from a plot of d^2 against log n, where d is the diameter (in cm) and n is the amount of sample applied in the well (in nmol). The plot is linear and thus CL can be calculated from the slope (k) and the intercept (m) of this plot. The formula used here was CL = 2.93/ak10^m/k, where a is the thickness of the bacterial plate and CL is in μM."}, "[7]": {"system": "Penicillin-sensitive Staphylococcus epidermidis P1111", "assay": "Inhibition-zone assay, lethal concentration (CL)", "type": "cell-based", "settings": "penicillin-sensitive S. epidermidis P1111", "experimental": "as §2"}, "[8]": {"system": "Staphylococcus warneri CGMCC 1.2824", "assay": "Inhibition-zone assay, lethal concentration (CL)", "type": "cell-based", "experimental": "as §2"}, "[9]": {"system": "Curtobacterium luteum", "assay": "Inhibition-zone assay, lethal concentration (CL)", "type": "cell-based", "experimental": "as §2"}, "[10]": {"system": "Staphylococcus aureus J706", "assay": "Inhibition-zone assay, lethal concentration (CL)", "type": "cell-based", "settings": "S. aureus J706", "experimental": "as §2"}, "[11]": {"system": "Methicillin-resistant coagulase negative Staphylococci P1369", "assay": "Inhibition-zone assay, lethal concentration (CL)", "type": "cell-based", "experimental": "as §2"}, "[12]": {"system": "Bacillus megaterium CGMCC 1.0459", "assay": "Inhibition-zone assay, lethal concentration (CL)", "type": "cell-based", "experimental": "as §2"}, "[13]": {"system": "Staphylococcus aureus CGMCC 1.89", "assay": "Inhibition-zone assay, lethal concentration (CL)", "type": "cell-based", "experimental": "as §2"}, "[14]": {"system": "Methicillin-resistant Staphylococcus aureus P1374", "assay": "Inhibition-zone assay, lethal concentration (CL)", "type": "cell-based", "settings": "methicillin-resistant S. aureus P1374", "experimental": "as §2"}, "[15]": {"system": "Staphylococcus aureus J698", "assay": "Inhibition-zone assay, lethal concentration (CL)", "type": "cell-based", "settings": "S. aureus J698", "experimental": "as §2"}, "[16]": {"system": "Staphylococcus aureus J685", "assay": "Inhibition-zone assay, lethal concentration (CL)", "type": "cell-based", "settings": "S. aureus J685", "experimental": "as §2"}, "[17]": {"system": "Penicillin-resistant Staphylococcus epidermidis P1389", "assay": "Inhibition-zone assay, lethal concentration (CL)", "type": "cell-based", "settings": "penicillin-resistant S. epidermidis P1389", "experimental": "as §2"}}, "note": "Where a SMILES comes first, the peptide text is derived from it. Bridges are numbered along the chain shown (N, C = ends)."}
{"molecule": "CN[C@H](CC(C)C)C(=O)N[C@H]1C(=O)N[C@@H](CC(N)=O)C(=O)N[C@H]2C(=O)N[C@H]3C(=O)N[C@H](C(=O)N[C@H](C(=O)O)c4cc(O)cc(O)c4-c4cc3ccc4O)[C@H](O)c3ccc(c(Cl)c3)Oc3cc2cc(c3O[C@@H]2O[C@H](CO)[C@@H](O)[C@H](O)[C@H]2O[C@H]2C[C@](C)(N)[C@H](O)[C@H](C)O2)Oc2ccc(cc2Cl)[C@H]1O", "note": "[vancomycin]", "values": [{"measurement": "membrane-disruptive activity (PI fluorescence increase)", "setting": "[1]", "value": "no obvious fluorescent increase"}, {"measurement": "cytoplasmic accumulation of UMP (RP-HPLC peak, MALDI-TOF identified)", "setting": "[2]", "value": "common emerging peak"}]}
{"molecule": "Plectasin (GFGCNGPWDEDDMQCHNHCKSIKGYKGGYCAKGGFVCKCY; UniProt Q53I06 56-95, looked up) [first fungal defensin found in Pseudoplectania nigrella, prototype of fungal defensin-like peptides]", "values": [{"measurement": "Activity", "setting": "[3]", "value": "+"}]}
{"molecule": "CC[C@H](C)[C@@H]1NC(=O)[C@H](CO)NC(=O)[C@H](CCCCN)NC(=O)[C@@H]2CSSC[C@@H](C(=O)N[C@@H](Cc3ccc(O)cc3)C(=O)O)NC(=O)[C@H](CCCCN)NC(=O)[C@@H]3CSSC[C@H](NC(=O)[C@H](CCCCN)NC(=O)[C@H](CCSC)NC(=O)[C@H](CC(=O)O)NC(=O)[C@H](CC(=O)O)NC(=O)[C@H](CCC(=O)O)NC(=O)[C@H](CC(=O)O)NC(=O)[C@H](Cc4c[nH]c5ccccc45)NC(=O)[C@@H]4CCCN4C(=O)CNC(=O)[C@H](CC(N)=O)NC(=O)[C@@H](NC(=O)CNC(=O)[C@H](Cc4ccccc4)NC(=O)CN)CSSC[C@H](NC(=O)[C@H](Cc4ccc(O)cc4)NC(=O)CNC(=O)CNC(=O)[C@H](CCCCN)NC(=O)[C@H](Cc4ccc(O)cc4)NC(=O)CNC(=O)[C@H](CCCCN)NC1=O)C(=O)N[C@@H](C)C(=O)N[C@@H](CCCCN)C(=O)N[C@@H](C)C(=O)NCC(=O)N[C@@H](Cc1ccccc1)C(=O)N[C@@H](C(C)C)C(=O)N3)C(=O)N[C@@H](Cc1c[nH]cn1)C(=O)N[C@@H](CC(N)=O)C(=O)N[C@@H](Cc1c[nH]cn1)C(=O)N2", "note": "[Py4, Pyronesin4] (H-GFGCNGPWDEDDMKCHNHCKSIKGYKGGYCAKAGFVCKCY-OH; disulfide 4-30, 15-37, 19-39)", "values": [{"measurement": "residual antibacterial activity after incubation in serum", "setting": "[4]; 24 h", "value": "retained its full antibacterial activity"}, {"measurement": "residual antibacterial activity after incubation in serum", "setting": "[4]; 48 h", "value": "retained its full antibacterial activity"}, {"measurement": "hemolysis on mouse blood cells", "setting": "[5]", "value": "no significant hemolysis"}, {"measurement": "CL (lethal concentration)", "setting": "[6]", "value": 2.51, "unit": "µM"}, {"measurement": "CL (lethal concentration)", "setting": "[7]", "value": 4.03, "unit": "µM"}, {"measurement": "CL (lethal concentration)", "setting": "[8]", "value": 1.06, "unit": "µM"}, {"measurement": "CL (lethal concentration)", "setting": "[9]", "value": 0.03, "unit": "µM"}, {"measurement": "CL (lethal concentration)", "setting": "[10]", "value": 2.51, "unit": "µM"}, {"measurement": "CL (lethal concentration)", "setting": "[11]", "value": 4.78, "unit": "µM"}, {"measurement": "CL (lethal concentration)", "setting": "[12]", "value": 0.67, "unit": "µM"}, {"measurement": "CL (lethal concentration)", "setting": "[13]", "value": 1.22, "unit": "µM"}, {"measurement": "CL (lethal concentration)", "setting": "[14]", "value": 2.69, "unit": "µM"}, {"measurement": "CL (lethal concentration)", "setting": "[15]", "value": 2.69, "unit": "µM"}, {"measurement": "CL (lethal concentration)", "setting": "[16]", "value": 2.69, "unit": "µM"}, {"measurement": "CL (lethal concentration)", "setting": "[17]", "value": 4.38, "unit": "µM"}]}
